Source: paper PMC11488110 (Theranostics, 2024)
“Also recorded” adds a separate entry of the source.

Columns and labels:
[1] = system: SH-SY5Y cells; test: BACE1 expression (western blot) in SH-SY5Y cells; format: cell-based, human; settings: 24 h
Method: For the in vitro co-transfection assay, CV-1 monkey kidney cells were cultured in Dulbecco's modified Eagle's medium (DMEM) supplemented with 10% resin-charcoal-stripped fetal bovine serum (FBS), 100 U/mL penicillin, and 100 µg/mL streptomycin. To investigate the anti-inflammatory effects of 5a, BV-2 microglial cells were cultured in RPMI 1640 (Biowest) supplemented with 10% heat-inactivated FBS (Biowest), 2.05 mM L-glutamine (Gibco), and 100 U/mL penicillin/streptomycin (Gibco). Primary mouse astrocytes were isolated from postnatal day 1 C57BL/6N mouse pups. The cerebral cortices collected with the meninges removed were triturated by gentle pipetting and centrifuged. Primary astrocytes were resuspended and cultured in DMEM supplemented with 10% heat-inactivated FBS (Biowest), 10% heat-inactivated horse serum (Gibco), and 100 U/mL penicillin/streptomycin (Gibco). […]
Total proteins were extracted from cells or mouse brain tissues using radioimmunoprecipitation assay (RIPA) buffer (Sigma-Aldrich) containing a protease and phosphatase inhibitor cocktail (Roche Diagnostics). […] Protein concentrations were determined using Pierce® BCA Protein Assay Kit (Thermo Fisher Scientific). […] The western blot bands were analyzed using ImageJ software (NIH) and β-Actin or glyceraldehyde 3-phosphate dehydrogenase (GAPDH) were used as a loading control. […]

[2] = Metabolic stability assay in liver microsomes; format: in vitro ADME, dog; settings: 1 μM, 30 min
Method: (§1) The metabolic stability assay was performed by incubation of human and selected animal liver microsomes (dog, rat, and mouse) with the test compound at a final concentration of 1 μM, in the presence of 0.5 mg/ml microsomal protein and NADPH-regeneration system, in a total volume of 100 μL phosphate buffer 100 mM (pH 7.4) at 37 °C. The incubation was started by introducing the NADPH-regeneration system and terminated by adding 40 μL of ice-cold acetonitrile at 0- and 30 min. Precipitated proteins were removed by centrifugation at 10,000 g and 4 °C for 5 min. Aliquots of the supernatant were injected onto an LC-MS/MS system. Incubations terminated prior to addition of the NADPH-regeneration system (time point, 0 min) were used as standards, defined as 100%. Percent of the parent compound remaining was calculated by comparing peak areas.
(§2) Ta b l e S2 . CYP inhibition, microsomal stability, and hERG in hibition of 5a .
(§3) CYP inhibitiona Microsomal stabilityb
(§4) ( % of c ont rol ac ti vit y) (% of remaining compound) hERG inhibitionc (IC50, μ M) […]
(§5) aCytochrome P450 (CYP450) enzyme activity was measured by incubating CYP450 enzyme isotype-specific substrates and liver microsomes in the presence of the test compound (10 μM) for 15 min. […]

[3] = Metabolic stability assay in liver microsomes; format: in vitro ADME, mouse; settings: 1 μM, 30 min
Method: as §1, §2, §3, §4, §5

[4] = system: Salmonella typhimurium TA98; test: Ames MPF mutagenicity assay, TA98; format: cell-based
Method: An Ames microplate format (MPF) 98/100 mutagenesis assay kit (Xenometrix) was used to test mutagenic activity. The TA98 / TA100 Salmonella strain was inoculated into the bacterial culture medium and cultured overnight. The Salmonella test strain was then exposed to six concentrations of the test compound (plus positive and negative controls). Samples were prepared in 96-well plates in sterile DMSO. The cultured bacteria, test compound, and S9 mixture were incubated for 90 min at 37 °C in a shaking incubator. The mixture was then treated with an indicator medium and dispensed into 384-well plates. The plates were incubated at 37 °C for 48 h. The number of wells containing revertant colonies was counted for each dose.
Ta b l e S4 . Tw o -strain Ames mutagenic assess ment of 5a.
Straina Activity in the absence (-) of S9b Activity in the presence (+) of S9b TA 9 8 Negative (-) Negative (-)
TA 1 0 0 Negative (-) Negative (-) aSalmonella typhimurium strains TA98 (hi s D3052 mutation) and TA100 (hisG46 mutation) were used to detect frameshift mutations and base- pair substitution mutations, respectively. bAroclor 1254- induced rat liver S9 fraction for exogenous metabolic activation.

## Cc1cc(SCc2[se]c(-c3ccc(C(F)(F)F)cc3)nc2C)ccc1OCC(=O)O [Compound 5a, {2-Methyl-4-[4-methyl-2-(4-trifluoromethyl-phenyl)-selenazol-5-yl-methylsulfanyl]-phenoxy}-acetic acid]
[1]
  BACE1 expression in SH-SY5Y cells: dose-dependently reduced the expression of BACE1
[2]
  Microsomal stability, Dog (% of remaining compound): 91.3 % of remaining compound
[3]
  Microsomal stability, Mouse (% of remaining compound): 76.1 % of remaining compound
[4]; TA98, with rat liver S9
  Ames mutagenic activity in the presence (+) of S9: Negative (-); also recorded: lacks mutagenicity
[4]; TA98, without S9
  Ames mutagenic activity in the absence (-) of S9: Negative (-); also recorded: lacks mutagenicity
